Results reported in patent publication EP2046786B1, “POLYMORPHIC FORMS OF ZIPRASIDONE SULFATES” (KRKA, priority 2006, dated 2008).
Structures can show the parent of a compound that is named as a salt.

Legend:
[1] = Solubility in water (pH 6.8) + 2 % SDS; type: physicochemical; conditions: water + 2 % SDS, aqueous with cosolvent or surfactant or cyclodextrin; water (pH 6.8) + 2 % SDS at room temperature
[2] = Water sorption analysis (0 % RH to 95 % RH, 25°C); type: physicochemical; conditions: for release of crystal water at 0 % RH: nitrogen flow rate 200 ml/min; for RH at which water sorption started: two 11-step circles from 0 % RH to 95 % RH
Method: An amount of 20 mg of zipasidone hydrogensulfate dihydrate was exposed to a watersorption analysis (Surface Measurement Systems Ltd., London, UK; two complete 11-step circles from 0 % RH to 95 % RH at the temperature 25°C and nitrogen flow rate 200 ml/min; minimal retention time at the step when dm/dt < 0.002% was 10 minutes and maximal 360 minutes) and compared to the same test of Ziprasidone hydrochloride monohydrate.

Structure (SMILES) | solubility [1] [µg/mL] | release of crystal water at 0 % RH [2] | stability to hydratation ([2]; compared with Ziprasidone hydrochloride salt) | RH at which water sorption started [2] [% RH]
O.O.O=C1Cc2cc(CCN3CCN(c4nsc5ccccc45)CC3)c(Cl)cc2N1.O=S(=O)(O)O [Ziprasidone hydrogensulfate dihydrate, 5-[2-[4-(1,2-benzisothiazol-3-yl) -1-piperazinyl]ethyl] -6-chloro-1,3-dihydro-2H-indol-2-one hydrogensulfate dihydrate] | 360 | does not release crystal water | more stable to hydratation | 50
O=C1Cc2cc(CCN3CCN(c4nsc5ccccc45)CC3)c(Cl)cc2N1 [Ziprasidone hydrochloride monohydrate, reference compound] |  | release crystal water |  | 30
